Active and inactive are the calls of the source.
Tests used:
[1] = molecular target: T1, Calpain-2 catalytic subunit (Sus scrofa, UniProt P43367); test: pig calpain II inhibitor potency, dose response, biochemical, fluorogenic peptide substrate (AID 1420); format: functional
T1 sequence (P43367 whole entry): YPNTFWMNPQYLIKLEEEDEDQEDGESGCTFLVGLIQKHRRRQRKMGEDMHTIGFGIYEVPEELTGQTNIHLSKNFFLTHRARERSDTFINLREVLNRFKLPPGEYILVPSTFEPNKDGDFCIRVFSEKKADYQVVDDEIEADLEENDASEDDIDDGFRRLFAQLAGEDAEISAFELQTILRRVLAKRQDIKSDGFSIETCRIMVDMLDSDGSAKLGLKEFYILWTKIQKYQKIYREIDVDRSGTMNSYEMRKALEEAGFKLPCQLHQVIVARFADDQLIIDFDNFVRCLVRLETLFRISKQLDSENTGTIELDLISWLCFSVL

[2] = molecular target: Luciferin 4-monooxygenase (Photinus pyralis, UniProt P08659); test: firefly luciferase enzyme inhibitors, dose response, biochemical, luminescence (AID 1891)
[3] = Luminescence Cell-Based Dose Confirmation HTS to Identify Inhibitors of Platelet Dense Granule Release. [Related pubchem assays: 1663 (Primary HTS), 1678 (Summary of Project)]; format: functional
H9c2 = test: cells; format: functional, cell-based; conditions: Rattus norvegicus, H9c2, Myocardium;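 also: confirmatory concentration-response retest of ultra-high-throughput screening hits for modulation of myocardial damage; cell death induced by hydrogen peroxide oxidative stress; compound pretreatment for 60 min then peroxide exposure for 2 h; potency is for protecting the cells against peroxide damage rather than for killing them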
[4] = HEp-2 cell cytotoxicity, dose response, cytotoxicity control for RSV inhibitor project, HTS (AID 2410); format: functional; conditions: human respiratory syncytial virus
[5] = Luminescence Cell-Based Dose Retest to Confirm Inhibitors of Cancer Stem Cells. [Related pubchem assays (depositor defined):AID2717, AID2721]; format: functional; conditions: Homo sapiens
H4 = test: Luminescence Cell-Based Dose Response HTS to Identify Activators of 5'UTR Stem-Loop Driven Prion Protein mRNA Translation in H4 Neuroglioblastoma Cells. [Related pubchem assays: 1829 (Project Summary), 1814 (Primary HTS)]; format: functional; conditions: Homo sapiens
[6] = Luminescence Cell-Based Dose Response HTS to Identify Activators of Luciferase Translation or Activity in H4 […] Cells. [Related pubchem assays: 1829 (Project Summary), 1814 (Primary HTS)]; format: functional
[7] = molecular target: T2, Corticotropin-releasing factor receptor 2/Corticotropin-releasing factor-binding protein (Homo sapiens, UniProt P24387+Q13324); test: Dose Response confirmation of uHTS hits for small molecule antagonists of the CRF-binding protein and CRF-R2 receptor complex.; format: functional; conditions: read-out: IC50_Mean
T2 sequence (Q13324 whole entry): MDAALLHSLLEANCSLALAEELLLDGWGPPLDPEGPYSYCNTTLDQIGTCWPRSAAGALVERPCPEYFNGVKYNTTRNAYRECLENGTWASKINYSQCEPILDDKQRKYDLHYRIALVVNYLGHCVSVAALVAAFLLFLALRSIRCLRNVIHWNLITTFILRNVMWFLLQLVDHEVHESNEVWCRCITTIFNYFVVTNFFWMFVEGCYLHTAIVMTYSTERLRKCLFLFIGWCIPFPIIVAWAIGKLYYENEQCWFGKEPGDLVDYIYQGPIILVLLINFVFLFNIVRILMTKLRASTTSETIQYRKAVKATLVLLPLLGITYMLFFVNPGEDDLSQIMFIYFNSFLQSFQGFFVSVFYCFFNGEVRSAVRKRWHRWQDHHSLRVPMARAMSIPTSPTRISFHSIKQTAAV
T2 sequence (P24387 whole entry): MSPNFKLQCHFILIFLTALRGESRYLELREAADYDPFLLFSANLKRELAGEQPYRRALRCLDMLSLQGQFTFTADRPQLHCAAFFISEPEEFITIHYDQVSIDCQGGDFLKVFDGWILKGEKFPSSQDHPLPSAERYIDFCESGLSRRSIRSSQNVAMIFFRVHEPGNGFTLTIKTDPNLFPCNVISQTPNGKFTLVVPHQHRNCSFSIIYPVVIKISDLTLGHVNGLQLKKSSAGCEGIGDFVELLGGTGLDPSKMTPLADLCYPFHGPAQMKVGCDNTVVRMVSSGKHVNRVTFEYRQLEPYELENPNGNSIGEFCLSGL

[8] = molecular target: T2, Corticotropin-releasing factor receptor 2/Corticotropin-releasing factor-binding protein; test: activators of CRF receptor 2 with binding protein – uHTS hits, confirmation (AID 602473); format: functional; conditions: read-out: EC50_Mean
[9] = cytotoxicity toward NIH3T3 fibroblasts, dose response, counter-screen, cell-based, ATP luminescence, mouse fibroblasts (AID 2010); format: functional;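 also: cells exposed to compound for about 90 hours before reading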
[10] = inhibitors of intracellular T. cruzi replication, confirmation, NIH3T3 host cells, beta-gal luminescence (AID 2044); format: functional, cell-based;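 also: intracellular parasites grown in NIH/3T3 mouse fibroblasts as host cells; luminescent beta-galactosidase reporter signal from transgenic T. cruzi replicating inside host cells; inhibitors lower the luminescence signal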
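For AC50 in this document: cells exposed to compound for roughly 70 hours or longer before luminescence read.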

Luciferin 4-monooxygenase, sequence (P08659 whole entry): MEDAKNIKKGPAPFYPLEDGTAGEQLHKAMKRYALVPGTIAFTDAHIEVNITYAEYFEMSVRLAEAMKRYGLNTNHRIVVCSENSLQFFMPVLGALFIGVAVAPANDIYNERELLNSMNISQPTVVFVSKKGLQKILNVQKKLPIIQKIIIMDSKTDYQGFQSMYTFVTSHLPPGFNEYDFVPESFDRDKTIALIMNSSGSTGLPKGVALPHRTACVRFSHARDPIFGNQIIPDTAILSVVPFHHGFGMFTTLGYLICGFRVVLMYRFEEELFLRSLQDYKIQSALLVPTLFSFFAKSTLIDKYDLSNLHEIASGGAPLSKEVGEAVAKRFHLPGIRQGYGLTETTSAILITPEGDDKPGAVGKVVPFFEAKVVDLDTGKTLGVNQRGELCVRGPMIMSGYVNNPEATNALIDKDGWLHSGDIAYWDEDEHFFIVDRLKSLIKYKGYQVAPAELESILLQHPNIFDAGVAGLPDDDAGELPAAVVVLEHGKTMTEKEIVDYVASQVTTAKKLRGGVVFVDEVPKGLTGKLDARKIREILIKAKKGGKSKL

COc1ccccc1NC(=O)/C(=C/c1cccs1)NC(=O)c1ccco1
IC50 [1]: 26 µM (not active)

COc1ccc(-c2nnc(SC(C)C(=O)Nc3cccc(Cl)c3)o2)cc1 (stereo unspecified)
IC50 [1]: 11.7 µM (not active)

COc1ccc(OC)c(Nc2nc(NCc3ccco3)c3ccccc3n2)c1
EC50 [2]: 18.7 µM (active)
EC50 [3]: 49 µM (active)

Fc1ccc(-c2ccc(-c3nn4c(-c5ccco5)nnc4s3)o2)cc1
IC50 (H9c2): 36.1 µM (inactive)

COc1ccccc1C(=O)Nc1ccc(S(=O)(=O)N(C)c2ccccc2)cc1
CC50 [4]: 29.4 µM (active)

CC(C)CCNc1nc(-c2ccco2)c2c(c1C#N)CCCC2
AC50 [5]: 10.4 µM (active)

Cc1ccc(OCCn2cc(/C=C(\C#N)C(=O)NCC3CCCO3)c3ccccc32)cc1 (stereo unspecified)
CC50 [4]: 38.7 µM (active)

COc1ccc(/C=C/C2=NC(=C\N(C)C)/C(=O)O2)cc1
EC50 (H4): 8.24 µM (active)
EC50 [6]: 11.2 µM (active)

COc1ccc(NC(=O)CC2C(=O)N(C)C(=S)N2CCc2ccccc2)cc1 (stereo unspecified)
CC50 [4]: 18 µM (active)

Cc1cccc(OCCNc2ccc([N+](=O)[O-])cn2)c1
IC50 [1]: > 50 µM (not active)

CC(CCc1ccco1)NC(=O)CCc1nnc2ccc(NCc3ccccc3)nn12 (stereo unspecified)
IC50 [7]: > 47.1 µM (inactive)
EC50 [2]: > 112 µM (not active)
EC50 [8]: > 53 µM (inactive)
EC50 [3]: > 112 µM (not active)

CCN(CC)c1nc(SCCOC(=O)Nc2ccccc2)nc(N(CC)CC)n1
AC50 [5]: 2.79 µM (active)
EC50 [9]: > 60 µM (not active)
EC50 [10]: 1.73 µM (active)

COc1cc(C(=O)N2CCN(c3ccc([N+](=O)[O-])cc3)CC2)ccc1OCc1c(C)noc1C
EC50 [2]: 40.2 µM (active)
EC50 [3]: > 112 µM (not active)

O=C(COc1ccc(Br)cc1CO)Nc1ccccc1F
CC50 [4]: 35.2 µM (active)

O=C(/C=C/c1c(F)cccc1Cl)Nc1nc2ccccc2[nH]1
EC50 (H4): 10.4 µM (active)
EC50 [6]: 0.14 µM (inconclusive)

O=C(CSc1ccc(-c2ccccc2)nn1)N1CCCCC1
EC50 (H4): 65.2 µM (active)
EC50 [6]: 25.4 µM (active)

CCN1CCN(c2nc(O)c3c(n2)CCCC3)CC1
IC50 (H9c2): > 79 µM (inactive)

O=C(O)c1ccc(-c2noc(-c3ccccc3F)n2)cc1
EC50 [2]: 1.45 µM (active)
EC50 [3]: 1.6 µM (active)

CC(=O)Nc1ccccc1C(=O)C(=O)Nc1cccc(C(=O)NCC2CCCO2)c1 (stereo unspecified)
IC50 [1]: 7.39 µM (not active)

O=C(c1cc(COc2c(F)cccc2F)on1)N1CCC(c2ccccc2Cl)C1 (stereo unspecified)
IC50 [1]: 4.48 µM (not active)

CCOc1ccc(CC(=O)Nc2c(C(N)=O)oc3ccc(Br)cc23)cc1OCC
IC50 (H9c2): > 79 µM (inactive)

O=c1c2ccccc2nc(-c2ccc(Cl)c(Cl)c2)n1O
IC50 (H9c2): > 79 µM (inactive)

CC(Sc1nnc(-c2ccc(O)cc2)o1)C(=O)Nc1cccc2ccccc12 (stereo unspecified)
IC50 [1]: < 0.4 µM (not active)

CCCCC(=O)Nc1nc(C)c(-c2csc(Nc3cc(Cl)ccc3OC)n2)s1
CC50 [4]: 26.5 µM (active)

[2H]c1c([2H])c([2H])c(-c2nc(N3CCCCCC3)sc2C(=O)c2ccccc2)c([2H])c1[2H]
CC50 [4]: 41.6 µM (active)

— ChEMBL document CHEMBL1201862, “PubChem BioAssay data set” (2004)
